Results from patent US6517836B1, “Nitrophenylaziridine compounds and their use as prodrugs” (Auckland Uniservices Limited, priority 1998, dated 2003).

system: human colon carcinoma NR− line (WIDR), wild-type; test: Cytotoxicity, 18 h drug exposure, WiDr NR− line; assay type: cell-based; conditions: WIDR cells, 18 h drug exposure; read-out: WiDr NR− IC50
Text: (§1) The Chinese hamster fibroblast NR− line (T78-1) is a V79/4 Chinese hamster fibroblast transfected with an empty shuttle vector, while the NR+ line (T79-A3) is the corresponding NR transfectant. The human colon carcinoma NR− line (WIDR) is wild-type, while the NR+ line (WC14 10) is the corresponding NR transfectant. The human ovarian carcinoma NR− line (SKOV3) is wild-type, while the NR+ line (SC3.2) is the corresponding NR transfectant. EMT6 is a mouse mammary carcinoma line, and EN2A is the NR-transformed counterpart.

Going from CN(CCN1CCOCC1)C(=O)c1cc(N2CC2)c([N+](=O)[O-])cc1[N+](=O)[O-] [Compound 4, 5-(aziridin-1-yl)-N-methyl-N-[2-(4-morpholino)ethyl]-2,4-dinitrobenzamide] to O=C(NCCCN1CCOCC1)c1cc(N2CC2)c([N+](=O)[O-])cc1[N+](=O)[O-] [Compound 5, 5-(aziridin-1-yl)-N-[3-(4-morpholino)propyl]-2,4-dinitrobenzamide], the IC50 falls from 170 µM to 30 µM (5.7-fold). The second is the more potent here.

Going from O=C(NCCCCN1CCOCC1)c1cc(N2CC2)c([N+](=O)[O-])cc1[N+](=O)[O-] [Compound 6, N-[4-(4-morpholino)butyl]-5-(aziridin-1-yl)-2,4-dinitrobenzamide] to O=C(NCCN1CCOCC1)c1cc([N+](=O)[O-])cc([N+](=O)[O-])c1N1CC1 [Compound 18, 2-(aziridin-1-yl)-N-[2-(4-morpholino)ethyl]-3,5-dinitrobenzamide], the IC50 rises from 28 µM to 521 µM (19-fold). The first is the more potent here.

system: Chinese hamster fibroblast NR− line (T78-1), V79/4 transfected with an empty shuttle vector; test: Cytotoxicity, 18 h drug exposure, V79 NR− line (T78-1); assay type: cell-based; conditions: T78-1 cells, 18 h drug exposure; read-out: V-79 NR− IC50
Text: as §1

CN(CCN1CCOCC1)C(=O)c1cc(N2CC2)c([N+](=O)[O-])cc1[N+](=O)[O-] [Compound 4, 5-(aziridin-1-yl)-N-methyl-N-[2-(4-morpholino)ethyl]-2,4-dinitrobenzamide] and O=C(NCCCN1CCOCC1)c1cc(N2CC2)c([N+](=O)[O-])cc1[N+](=O)[O-] [Compound 5, 5-(aziridin-1-yl)-N-[3-(4-morpholino)propyl]-2,4-dinitrobenzamide] are within 1.5-fold of each other in IC50: 364 µM for the first, 255 µM for the second.

Compared with O=C(NCCCCN1CCOCC1)c1cc(N2CC2)c([N+](=O)[O-])cc1[N+](=O)[O-] [Compound 6, N-[4-(4-morpholino)butyl]-5-(aziridin-1-yl)-2,4-dinitrobenzamide], O=C(NCCN1CCOCC1)c1cc([N+](=O)[O-])cc([N+](=O)[O-])c1N1CC1 [Compound 18, 2-(aziridin-1-yl)-N-[2-(4-morpholino)ethyl]-3,5-dinitrobenzamide] is higher in IC50: 237 µM for the first, > 500 µM for the second. The first is the more potent here.

system: human ovarian carcinoma NR− line (SKOV3), wild-type; test: Cytotoxicity, 18 h drug exposure, SKOV3 NR− line; assay type: cell-based; conditions: SKOV3 cells, 18 h drug exposure; read-out: SKOV NR− IC50
Text: as §1

First: CN(CCN1CCOCC1)C(=O)c1cc(N2CC2)c([N+](=O)[O-])cc1[N+](=O)[O-] [Compound 4, 5-(aziridin-1-yl)-N-methyl-N-[2-(4-morpholino)ethyl]-2,4-dinitrobenzamide]
Second: O=C(NCCCN1CCOCC1)c1cc(N2CC2)c([N+](=O)[O-])cc1[N+](=O)[O-] [Compound 5, 5-(aziridin-1-yl)-N-[3-(4-morpholino)propyl]-2,4-dinitrobenzamide]
The IC50 of the first is 4.4-fold higher: 533 µM for the first, 122 µM for the second. The second is the more potent here.

First: O=C(NCCCCN1CCOCC1)c1cc(N2CC2)c([N+](=O)[O-])cc1[N+](=O)[O-] [Compound 6, N-[4-(4-morpholino)butyl]-5-(aziridin-1-yl)-2,4-dinitrobenzamide]
Second: O=C(NCCN1CCOCC1)c1cc([N+](=O)[O-])cc([N+](=O)[O-])c1N1CC1 [Compound 18, 2-(aziridin-1-yl)-N-[2-(4-morpholino)ethyl]-3,5-dinitrobenzamide]
The IC50 of the first is lower: 151 µM for the first, > 500 µM for the second.

system: human colon carcinoma NR+ line (WC14 10), NR transfectant; test: Cytotoxicity, 18 h drug exposure, WiDr NR+ line (WC14 10); assay type: cell-based; conditions: WC14 10 cells, 18 h drug exposure; read-out: WiDr NR+ IC50
Text: as §1

Compared with CN(CCN1CCOCC1)C(=O)c1cc(N2CC2)c([N+](=O)[O-])cc1[N+](=O)[O-] [Compound 4, 5-(aziridin-1-yl)-N-methyl-N-[2-(4-morpholino)ethyl]-2,4-dinitrobenzamide], O=C(NCCCN1CCOCC1)c1cc(N2CC2)c([N+](=O)[O-])cc1[N+](=O)[O-] [Compound 5, 5-(aziridin-1-yl)-N-[3-(4-morpholino)propyl]-2,4-dinitrobenzamide] is 35-fold lower in IC50: 8.1 µM for the first, 0.23 µM for the second.

Compared with O=C(NCCCCN1CCOCC1)c1cc(N2CC2)c([N+](=O)[O-])cc1[N+](=O)[O-] [Compound 6, N-[4-(4-morpholino)butyl]-5-(aziridin-1-yl)-2,4-dinitrobenzamide], O=C(NCCN1CCOCC1)c1cc([N+](=O)[O-])cc([N+](=O)[O-])c1N1CC1 [Compound 18, 2-(aziridin-1-yl)-N-[2-(4-morpholino)ethyl]-3,5-dinitrobenzamide] is 58-fold higher in IC50: 0.31 µM for the first, 18 µM for the second.

same assay, conditions: WIDR vs WC14 10; inter-experiment average

Going from CN(CCN1CCOCC1)C(=O)c1cc(N2CC2)c([N+](=O)[O-])cc1[N+](=O)[O-] [Compound 4, 5-(aziridin-1-yl)-N-methyl-N-[2-(4-morpholino)ethyl]-2,4-dinitrobenzamide] to O=C(NCCCN1CCOCC1)c1cc(N2CC2)c([N+](=O)[O-])cc1[N+](=O)[O-] [Compound 5, 5-(aziridin-1-yl)-N-[3-(4-morpholino)propyl]-2,4-dinitrobenzamide], the “WiDr ratio of IC50s” value rises from 21 to 120.

Compared with O=C(NCCCCN1CCOCC1)c1cc(N2CC2)c([N+](=O)[O-])cc1[N+](=O)[O-] [Compound 6, N-[4-(4-morpholino)butyl]-5-(aziridin-1-yl)-2,4-dinitrobenzamide], O=C(NCCN1CCOCC1)c1cc([N+](=O)[O-])cc([N+](=O)[O-])c1N1CC1 [Compound 18, 2-(aziridin-1-yl)-N-[2-(4-morpholino)ethyl]-3,5-dinitrobenzamide] is lower in “WiDr ratio of IC50s” value: 93 for the first, 32 for the second.

system: Chinese hamster fibroblast NR+ line (T79-A3), NR transfectant; test: Cytotoxicity, 18 h drug exposure, V79 NR+ line (T79-A3); assay type: cell-based; conditions: T78-1 vs T79-A3; inter-experiment average
Text: as §1

Going from CN(CCN1CCOCC1)C(=O)c1cc(N2CC2)c([N+](=O)[O-])cc1[N+](=O)[O-] [Compound 4, 5-(aziridin-1-yl)-N-methyl-N-[2-(4-morpholino)ethyl]-2,4-dinitrobenzamide] to O=C(NCCCN1CCOCC1)c1cc(N2CC2)c([N+](=O)[O-])cc1[N+](=O)[O-] [Compound 5, 5-(aziridin-1-yl)-N-[3-(4-morpholino)propyl]-2,4-dinitrobenzamide], the “V-79 ratio of IC50s” value rises from 235 to 6210.

O=C(NCCCCN1CCOCC1)c1cc(N2CC2)c([N+](=O)[O-])cc1[N+](=O)[O-] [Compound 6, N-[4-(4-morpholino)butyl]-5-(aziridin-1-yl)-2,4-dinitrobenzamide] was tested, and the “V-79 ratio of IC50s” value was 1210.

For O=C(NCCN1CCOCC1)c1cc([N+](=O)[O-])cc([N+](=O)[O-])c1N1CC1 [Compound 18, 2-(aziridin-1-yl)-N-[2-(4-morpholino)ethyl]-3,5-dinitrobenzamide], the “V-79 ratio of IC50s” value was >68.

same assay, conditions: T79-A3 cells, 18 h drug exposure; read-out: V-79 NR+ IC50

Compared with CN(CCN1CCOCC1)C(=O)c1cc(N2CC2)c([N+](=O)[O-])cc1[N+](=O)[O-] [Compound 4, 5-(aziridin-1-yl)-N-methyl-N-[2-(4-morpholino)ethyl]-2,4-dinitrobenzamide], O=C(NCCCN1CCOCC1)c1cc(N2CC2)c([N+](=O)[O-])cc1[N+](=O)[O-] [Compound 5, 5-(aziridin-1-yl)-N-[3-(4-morpholino)propyl]-2,4-dinitrobenzamide] is 38-fold lower in IC50: 1.8 µM for the first, 0.048 µM for the second. The second is the more potent here.

Going from O=C(NCCCCN1CCOCC1)c1cc(N2CC2)c([N+](=O)[O-])cc1[N+](=O)[O-] [Compound 6, N-[4-(4-morpholino)butyl]-5-(aziridin-1-yl)-2,4-dinitrobenzamide] to O=C(NCCN1CCOCC1)c1cc([N+](=O)[O-])cc([N+](=O)[O-])c1N1CC1 [Compound 18, 2-(aziridin-1-yl)-N-[2-(4-morpholino)ethyl]-3,5-dinitrobenzamide], the IC50 rises from 0.25 µM to 7.3 µM (29-fold).

system: human ovarian carcinoma NR+ line (SC3.2), NR transfectant; test: Cytotoxicity, 18 h drug exposure, SKOV NR+ line (SC3.2); assay type: cell-based; conditions: SC3.2 cells, 18 h drug exposure; read-out: SKOV NR+ IC50
Text: as §1

Going from CN(CCN1CCOCC1)C(=O)c1cc(N2CC2)c([N+](=O)[O-])cc1[N+](=O)[O-] [Compound 4, 5-(aziridin-1-yl)-N-methyl-N-[2-(4-morpholino)ethyl]-2,4-dinitrobenzamide] to O=C(NCCCN1CCOCC1)c1cc(N2CC2)c([N+](=O)[O-])cc1[N+](=O)[O-] [Compound 5, 5-(aziridin-1-yl)-N-[3-(4-morpholino)propyl]-2,4-dinitrobenzamide], the IC50 falls from 13 µM to 0.15 µM (87-fold). The second is the more potent here.

First: O=C(NCCCCN1CCOCC1)c1cc(N2CC2)c([N+](=O)[O-])cc1[N+](=O)[O-] [Compound 6, N-[4-(4-morpholino)butyl]-5-(aziridin-1-yl)-2,4-dinitrobenzamide]
Second: O=C(NCCN1CCOCC1)c1cc([N+](=O)[O-])cc([N+](=O)[O-])c1N1CC1 [Compound 18, 2-(aziridin-1-yl)-N-[2-(4-morpholino)ethyl]-3,5-dinitrobenzamide]
The IC50 of the first is 37-fold lower: 0.3 µM for the first, 11 µM for the second.

same assay, conditions: SKOV3 vs SC3.2; inter-experiment average

First: CN(CCN1CCOCC1)C(=O)c1cc(N2CC2)c([N+](=O)[O-])cc1[N+](=O)[O-] [Compound 4, 5-(aziridin-1-yl)-N-methyl-N-[2-(4-morpholino)ethyl]-2,4-dinitrobenzamide]
Second: O=C(NCCCN1CCOCC1)c1cc(N2CC2)c([N+](=O)[O-])cc1[N+](=O)[O-] [Compound 5, 5-(aziridin-1-yl)-N-[3-(4-morpholino)propyl]-2,4-dinitrobenzamide]
The “SKOV ratio of IC50s” value of the first is lower: 46 for the first, 730 for the second.

With O=C(NCCCCN1CCOCC1)c1cc(N2CC2)c([N+](=O)[O-])cc1[N+](=O)[O-] [Compound 6, N-[4-(4-morpholino)butyl]-5-(aziridin-1-yl)-2,4-dinitrobenzamide] the “SKOV ratio of IC50s” value was 510.

For O=C(NCCN1CCOCC1)c1cc([N+](=O)[O-])cc([N+](=O)[O-])c1N1CC1 [Compound 18, 2-(aziridin-1-yl)-N-[2-(4-morpholino)ethyl]-3,5-dinitrobenzamide], the “SKOV ratio of IC50s” value was >72.
